Reference: patent US6995143B2, “Macrolides with antibacterial activity” (Basilea Pharmaceutica AG, priority 2002, dated 2006)
≈ marks a conversion by molar mass, not a printed value.

Columns and labels:
Type in all cases: cell-based
[1] = test system: Haemophilus influenzae 12214; assay: MIC, standard agar dilution method using HTM medium; details: for MIC: read-out: minimum inhibitory concentration (MIC), Strain K
From the text: (§1) The biological activities of compounds of the present invention against Haemophilus influenzae have been determined by standard agar dilution method using HTM medium (National Committee for Clinical Laboratory Standards. 2000. Methods for Dilution Antimicrobial Susceptibility Tests for Bacteria that Grow Aerobically, 5th edition. Approved standard M7-A5. National Committee for Clinical Laboratory Standards, Wayne, Pa.).

[2] = test system: Haemophilus influenzae QK12/87; assay: as above; details: for MIC: read-out: minimum inhibitory concentration (MIC), Strain I
From the text: as §1

[3] = test system: Haemophilus influenzae B1501; assay: as above; details: for MIC: read-out: minimum inhibitory concentration (MIC), Strain M
From the text: as §1

[4] = test system: Haemophilus influenzae QK50; assay: as above; details: for MIC: read-out: minimum inhibitory concentration (MIC), Strain L
From the text: as §1

[5] = test system: Escherichia coli ATCC 25922; assay: MIC, standard microdilution technique; details: for MIC: ATCC25922, read-out: minimum inhibitory concentration (MIC), Strain D
From the text: (§2) The antibacterial activities of the compounds have been determined by standard microdilution technique (National Committee for Clinical Laboratory Standards. 2000. Methods for Dilution Antimicrobial Susceptibility Tests for Bacteria that Grow Aerobically, 5th edition. Approved standard M7-A5. National Committee for Clinical Laboratory Standards, Wayne, Pa.).

[6] = test system: Streptococcus pneumoniae l/l; assay: MIC, standard microdilution technique; details: for MIC: read-out: minimum inhibitory concentration (MIC), Strain E
From the text: as §2

[7] = test system: Streptococcus pneumoniae SL199T; assay: MIC, standard microdilution technique; details: for MIC: read-out: minimum inhibitory concentration (MIC), Strain G
From the text: as §2

[8] = test system: Streptococcus pneumoniae ¼; assay: MIC, standard microdilution technique; details: for MIC: read-out: minimum inhibitory concentration (MIC), Strain F
From the text: as §2

[9] = test system: Staphylococcus aureus ATCC 29213; assay: MIC, standard microdilution technique; details: for MIC: ATCC29213, read-out: minimum inhibitory concentration (MIC), Strain A
From the text: as §2

[10] = test system: Staphylococcus aureus 1086; assay: MIC, standard microdilution technique; details: for MIC: read-out: minimum inhibitory concentration (MIC), Strain B
From the text: as §2

[11] = test system: Streptococcus pneumoniae 12288; assay: MIC, standard microdilution technique; details: for MIC: read-out: minimum inhibitory concentration (MIC), Strain H
From the text: as §2

[12] = test system: Staphylococcus aureus 745; assay: MIC, standard microdilution technique; details: for MIC: read-out: minimum inhibitory concentration (MIC), Strain C
From the text: as §2

Row | SMILES | minimum inhibitory concentration (MIC), Strain K [1] | minimum inhibitory concentration (MIC), Strain I [2] | minimum inhibitory concentration (MIC), Strain M [3] | minimum inhibitory concentration (MIC), Strain L [4] | minimum inhibitory concentration (MIC), Strain D [5] | minimum inhibitory concentration (MIC), Strain E [6] | minimum inhibitory concentration (MIC), Strain G [7] | minimum inhibitory concentration (MIC), Strain F [8] | minimum inhibitory concentration (MIC), Strain A [9] | minimum inhibitory concentration (MIC), Strain B [10] | minimum inhibitory concentration (MIC), Strain H [11] | minimum inhibitory concentration (MIC), Strain C [12] | also measured
1 | CC[C@H]1OC(=O)[C@H](C)C(=O)[C@H](C)[C@@H](O[C@@H]2O[C@H](C)C[C@H](N(C)C)[C@H]2O)[C@](C)(OC)C[C@@H](C)C(=O)[C@H](C)[C@H]2[C@@H](SCCNC(=O)c3cccc4cccnc34)C(=O)O[C@@]21C (single isomer, unassigned) [Example 49] | 16 µg/mL (≈ 19 µM) | 4 µg/mL (≈ 4.75 µM) | 4 µg/mL (≈ 4.75 µM) | 4 µg/mL (≈ 4.75 µM) | >32 µg/mL | <=0.06 μg/ml | 2 µg/mL (≈ 2.38 µM) | <=0.06 μg/ml | <=0.06 μg/ml | <=0.06 μg/ml | 16 µg/mL (≈ 19 µM) | >32 µg/mL | 
2 | CC[C@H]1OC(=O)[C@H](C)C(=O)[C@H](C)[C@@H](O[C@@H]2O[C@H](C)C[C@H](N(C)C)[C@H]2O)[C@](C)(OC)C[C@@H](C)C(=O)[C@H](C)[C@H]2[C@@H](SCCNC(=O)c3ccc(-n4cccn4)nc3)C(=O)O[C@@]21C (single isomer, unassigned) [Example 50] | 16 µg/mL (≈ 18.6 µM) | 8 µg/mL (≈ 9.32 µM) | 4 µg/mL (≈ 4.66 µM) | 8 µg/mL (≈ 9.32 µM) | >32 µg/mL | <=0.06 μg/ml | 32 µg/mL (≈ 37.3 µM) | 32 µg/mL (≈ 37.3 µM) | 0.25 µg/mL (≈ 0.291 µM) | 0.125 µg/mL (≈ 0.146 µM) | >32 µg/mL | >32 µg/mL | 
3 | CC[C@H]1OC(=O)[C@H](C)C(=O)[C@H](C)[C@@H](O[C@@H]2O[C@H](C)C[C@H](N(C)C)[C@H]2O)[C@](C)(OC)C[C@@H](C)C(=O)[C@H](C)[C@H]2[C@@H](SCC(=O)Nc3ccccc3-c3ccccc3OC)C(=O)O[C@@]21C (single isomer, unassigned) [Example 53] | 16 µg/mL (≈ 18.1 µM) | 8 µg/mL (≈ 9.06 µM) | 16 µg/mL (≈ 18.1 µM) | 8 µg/mL (≈ 9.06 µM) | >32 µg/mL | <=0.06 μg/ml | 16 µg/mL (≈ 18.1 µM) | 1 µg/mL (≈ 1.13 µM) | 0.5 µg/mL (≈ 0.566 µM) | 0.25 µg/mL (≈ 0.283 µM) | >32 µg/mL | >32 µg/mL | 
4 | CC[C@H]1OC(=O)[C@@](C)(F)C(=O)[C@H](C)[C@@H](O[C@@H]2O[C@H](C)C[C@H](N(C)C)[C@H]2O)[C@](C)(OC)C[C@@H](C)C(=O)[C@H](C)[C@H]2[C@@H](SCCn3cnc4c(N)ncnc43)C(=O)O[C@@]21C (single isomer, unassigned) [Example 56] | 1 µg/mL (≈ 1.22 µM) | 1 µg/mL (≈ 1.22 µM) | 0.5 µg/mL (≈ 0.608 µM) | 0.5 µg/mL (≈ 0.608 µM) | 32 µg/mL (≈ 38.9 µM) | <=0.06 μg/ml | <=0.06 μg/ml | <=0.06 μg/ml | <=0.06 μg/ml | <=0.06 μg/ml | 1 µg/mL (≈ 1.22 µM) | >32 µg/mL | 
5 | CC[C@H]1OC(=O)[C@@](C)(F)C(=O)[C@H](C)[C@@H](O[C@@H]2O[C@H](C)C[C@H](N(C)C)[C@H]2O)[C@](C)(OC)C[C@@H](C)C(=O)[C@H](C)[C@H]2[C@@H]([S+]([O-])CCCn3cnc4c(N)ncnc43)C(=O)O[C@@]21C (single isomer, unassigned) [Example 57] | 8 µg/mL (≈ 9.38 µM) | 4 µg/mL (≈ 4.69 µM) | 4 µg/mL (≈ 4.69 µM) | 8 µg/mL (≈ 9.38 µM) | >32 µg/mL | <=0.06 μg/ml | 1 µg/mL (≈ 1.17 µM) | 0.125 µg/mL (≈ 0.147 µM) | 2 µg/mL (≈ 2.34 µM) | 2 µg/mL (≈ 2.34 µM) | 32 µg/mL (≈ 37.5 µM) | >32 µg/mL | 
6 | CC[C@H]1OC(=O)[C@H](C)[C@@H](O[C@H]2C[C@@](C)(OC)[C@@H](O)[C@H](C)O2)[C@H](C)[C@@H](O[C@@H]2O[C@H](C)C[C@H](N(C)C)[C@H]2O)[C@](C)(OC)C[C@@H](C)C(=O)[C@H](C)[C@@H](O)[C@]1(C)O [Clarithromycin, reference compound] |  |  |  |  |  |  |  |  |  |  |  |  | MIC [1]: 4 µg/mL (≈ 5.35 µM); MIC [2]: 4 µg/mL (≈ 5.35 µM); MIC [3]: 4 µg/mL (≈ 5.35 µM); MIC [4]: 8 µg/mL (≈ 10.7 µM); MIC [5]: > 32 µg/mL; MIC [6]: ≤ 0.06 µg/mL; MIC [7]: > 32 µg/mL; MIC [8]: 32 µg/mL (≈ 42.8 µM); MIC [9]: 0.125 µg/mL (≈ 0.167 µM); MIC [10]: > 32 µg/mL; MIC [11]: > 32 µg/mL; MIC [12]: > 32 µg/mL
7 | CC[C@H]1OC(=O)[C@H](C)[C@@H](O[C@H]2C[C@@](C)(OC)[C@@H](O)[C@H](C)O2)[C@H](C)[C@@H](O[C@@H]2O[C@H](C)C[C@H](N(C)C)[C@H]2O)[C@](C)(O)C[C@@H](C)C(=O)[C@H](C)[C@@H](O)[C@]1(C)O [Erythromycin, reference compound] |  |  |  |  |  |  |  |  |  |  |  |  | MIC [1]: 4 µg/mL (≈ 5.45 µM); MIC [2]: 4 µg/mL (≈ 5.45 µM); MIC [3]: 4 µg/mL (≈ 5.45 µM); MIC [4]: 8 µg/mL (≈ 10.9 µM); MIC [5]: > 32 µg/mL; MIC [6]: ≤ 0.06 µg/mL; MIC [7]: > 32 µg/mL; MIC [8]: > 32 µg/mL; MIC [9]: 0.25 µg/mL (≈ 0.341 µM); MIC [10]: > 32 µg/mL; MIC [11]: > 32 µg/mL; MIC [12]: > 32 µg/mL
8 | CC[C@H]1OC(=O)[C@H](C)C(=O)[C@H](C)[C@@H](O[C@@H]2O[C@H](C)C[C@H](N(C)C)[C@H]2O)[C@](C)(OC)C[C@@H](C)C(=O)[C@H](C)[C@H]2[C@@H](SCC(=O)c3ccc4c(c3)CCC(=O)N4)C(=O)O[C@@]21C [Example 6] | 32 µg/mL (≈ 38.5 µM) | >32 µg/mL | 32 µg/mL (≈ 38.5 µM) | 32 µg/mL (≈ 38.5 µM) | >32 µg/mL | <=0.06 μg/ml | 32 µg/mL (≈ 38.5 µM) | >32 µg/mL | 1 µg/mL (≈ 1.2 µM) | 1 µg/mL (≈ 1.2 µM) | >32 µg/mL | >32 µg/mL | 
9 | CC[C@H]1OC(=O)[C@H](C)C(=O)[C@H](C)[C@@H](O[C@@H]2O[C@H](C)C[C@H](N(C)C)[C@H]2O)[C@](C)(OC)C[C@@H](C)C(=O)[C@H](C)[C@H]2[C@@H](SCC(=O)c3ccccn3)C(=O)O[C@@]21C [Example 7] | 32 µg/mL (≈ 41.9 µM) | 32 µg/mL (≈ 41.9 µM) | 32 µg/mL (≈ 41.9 µM) | 32 µg/mL (≈ 41.9 µM) | >32 µg/mL | <=0.06 μg/ml | 32 µg/mL (≈ 41.9 µM) | 32 µg/mL (≈ 41.9 µM) | 1 µg/mL (≈ 1.31 µM) | 0.5 µg/mL (≈ 0.655 µM) | >32 µg/mL | >32 µg/mL | 
10 | CC[C@H]1OC(=O)[C@H](C)C(=O)[C@H](C)[C@@H](O[C@@H]2O[C@H](C)C[C@H](N(C)C)[C@H]2O)[C@](C)(OC)C[C@@H](C)C(=O)[C@H](C)[C@H]2[C@@H](SCCN(C)CCn3cnc4c(N)ncnc43)C(=O)O[C@@]21C [Example 9] | 16 µg/mL (≈ 18.6 µM) | 8 µg/mL (≈ 9.28 µM) | 4 µg/mL (≈ 4.64 µM) | 8 µg/mL (≈ 9.28 µM) | >32 µg/mL | <=0.06 μg/ml | 8 µg/mL (≈ 9.28 µM) | 0.5 µg/mL (≈ 0.58 µM) | 1 µg/mL (≈ 1.16 µM) | 1 µg/mL (≈ 1.16 µM) | 32 µg/mL (≈ 37.1 µM) | >32 µg/mL | 
